Series [1] has as its target T1, PI3K p110 beta/p85 alpha (Homo sapiens, UniProt P42338). Briefly: Inhibition of N-terminal His6-tagged recombinant full length human p110beta/untagged recombinant full length human p85alpha expressed in baculovirus infected Sf21 insect cells at 1 uM using PIP2 as substrate measured after 80 mins by transcreener fluorescence polarization assay relative to control.

The nature of series [2]: Stability in rat liver microsomes assessed as parent compound remaining at 1 uM measured after 30 mins in presence of NADPH generating system.
Series [3] can be described thus: Stability in human liver microsomes assessed as parent compound remaining at 1 uM measured after 30 mins in presence of NADPH generating system. In general terms: Liver microsomes are vesicles of endoplasmic reticulum, rich in cytochrome P450 enzymes.
A short description of series [4]: Inhibition of PI3Kgamma in […] RAW264.7 cells assessed as reduction in C5a-stimulated AKT phosphorylation at Ser473 residue preincubated for 30 mins followed by C5a-stimulation and measured after 5 mins. The format is cell-based.
Series [5] concerns the target T2, Phosphatidylinositol 4,5-bisphosphate 3-kinase catalytic subunit delta isoform (Homo sapiens, UniProt O00329).
T2 sequence (O00329 whole entry): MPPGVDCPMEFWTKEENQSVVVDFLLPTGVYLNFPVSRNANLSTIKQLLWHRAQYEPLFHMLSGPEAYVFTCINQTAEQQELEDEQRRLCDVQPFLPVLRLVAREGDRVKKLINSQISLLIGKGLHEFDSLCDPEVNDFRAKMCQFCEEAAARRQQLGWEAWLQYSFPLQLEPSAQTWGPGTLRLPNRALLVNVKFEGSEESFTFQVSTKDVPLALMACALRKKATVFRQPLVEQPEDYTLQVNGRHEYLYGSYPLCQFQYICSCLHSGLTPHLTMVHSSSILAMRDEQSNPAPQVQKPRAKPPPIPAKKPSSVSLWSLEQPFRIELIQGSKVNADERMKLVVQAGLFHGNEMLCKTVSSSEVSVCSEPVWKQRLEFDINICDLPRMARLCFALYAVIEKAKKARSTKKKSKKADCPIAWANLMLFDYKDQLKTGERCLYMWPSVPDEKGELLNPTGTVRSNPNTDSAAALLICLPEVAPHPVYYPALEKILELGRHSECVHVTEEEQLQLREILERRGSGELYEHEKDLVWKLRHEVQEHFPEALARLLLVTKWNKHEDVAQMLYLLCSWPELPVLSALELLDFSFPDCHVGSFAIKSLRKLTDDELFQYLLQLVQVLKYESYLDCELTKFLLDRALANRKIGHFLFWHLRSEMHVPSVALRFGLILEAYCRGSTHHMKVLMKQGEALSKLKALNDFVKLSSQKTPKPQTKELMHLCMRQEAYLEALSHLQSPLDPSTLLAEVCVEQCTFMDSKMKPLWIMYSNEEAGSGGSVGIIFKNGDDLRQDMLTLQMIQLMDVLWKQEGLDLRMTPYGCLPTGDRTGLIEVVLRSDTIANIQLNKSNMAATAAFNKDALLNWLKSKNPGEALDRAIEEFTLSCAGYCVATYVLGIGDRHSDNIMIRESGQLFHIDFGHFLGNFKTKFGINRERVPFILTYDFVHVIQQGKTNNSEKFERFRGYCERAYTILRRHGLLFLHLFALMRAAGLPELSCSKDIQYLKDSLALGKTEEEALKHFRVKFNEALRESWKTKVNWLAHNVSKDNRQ
Briefly: Inhibition of PI3Kdelta in human Ramos cells assessed as reduction in antihuman IgM-stimulated AKT phosphorylation at Ser473 residue preincubated for 60 mins followed by antihuman IgM stimulation and measured after 15 mins. The format is cell-based.

Series [6] has as its target T1, PI3K p110 beta/p85 alpha. As to the kind of experiment: Inhibition of N-terminal His6-tagged recombinant full length human p110beta/untagged recombinant full length human p85alpha expressed in baculovirus infected Sf21 insect cells using PIP2 as substrate measured after 80 mins by transcreener fluorescence polarization assay.
Series [7] has as its target PI3-kinase p110-alpha/p85-alpha (Homo sapiens, UniProt P42336). Briefly: Inhibition of recombinant human full-length N-terminal His-tagged PI3K p110alpha/p85alpha expressed in baculovirus expression system at 1 uM using PIP2 as substrate measured after 80 mins by transcreener fluorescence polarization assay relative to control. A general note: In fluorescence polarisation assays a small probe gives low polarisation when free and higher when bound to something large.

The nature of series [8]: Inhibition of PI3Kdelta in rat whole blood assessed as reduction in anti-IgD-stimulated CD86 expression on B-cells preincubated for 60 mins followed by anti-IgD stimulation and measured after overnight incubation by flow cytometry. The format is tissue-based. Background: In flow cytometry, cells or beads pass a laser one at a time.

T1 sequence (P27986 whole entry): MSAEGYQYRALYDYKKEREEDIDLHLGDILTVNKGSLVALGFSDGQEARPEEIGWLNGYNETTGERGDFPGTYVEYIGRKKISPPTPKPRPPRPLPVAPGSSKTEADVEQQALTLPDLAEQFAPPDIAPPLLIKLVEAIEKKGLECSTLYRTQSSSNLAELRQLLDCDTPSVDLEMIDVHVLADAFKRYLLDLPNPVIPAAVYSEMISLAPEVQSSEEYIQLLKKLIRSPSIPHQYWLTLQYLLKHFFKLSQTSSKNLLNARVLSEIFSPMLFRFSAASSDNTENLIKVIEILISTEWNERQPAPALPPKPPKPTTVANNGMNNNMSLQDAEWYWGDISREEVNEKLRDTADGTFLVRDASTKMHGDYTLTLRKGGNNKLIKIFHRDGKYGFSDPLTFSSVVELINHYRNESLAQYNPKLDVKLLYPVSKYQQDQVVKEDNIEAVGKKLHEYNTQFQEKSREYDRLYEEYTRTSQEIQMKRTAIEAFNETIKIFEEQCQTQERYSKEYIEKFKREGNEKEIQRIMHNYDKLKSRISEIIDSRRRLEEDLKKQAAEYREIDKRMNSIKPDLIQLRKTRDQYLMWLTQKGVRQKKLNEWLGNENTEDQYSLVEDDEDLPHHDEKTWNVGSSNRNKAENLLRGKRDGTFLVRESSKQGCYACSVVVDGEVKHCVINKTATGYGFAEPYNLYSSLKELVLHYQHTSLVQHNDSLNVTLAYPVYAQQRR
T1 sequence (P42338 whole entry): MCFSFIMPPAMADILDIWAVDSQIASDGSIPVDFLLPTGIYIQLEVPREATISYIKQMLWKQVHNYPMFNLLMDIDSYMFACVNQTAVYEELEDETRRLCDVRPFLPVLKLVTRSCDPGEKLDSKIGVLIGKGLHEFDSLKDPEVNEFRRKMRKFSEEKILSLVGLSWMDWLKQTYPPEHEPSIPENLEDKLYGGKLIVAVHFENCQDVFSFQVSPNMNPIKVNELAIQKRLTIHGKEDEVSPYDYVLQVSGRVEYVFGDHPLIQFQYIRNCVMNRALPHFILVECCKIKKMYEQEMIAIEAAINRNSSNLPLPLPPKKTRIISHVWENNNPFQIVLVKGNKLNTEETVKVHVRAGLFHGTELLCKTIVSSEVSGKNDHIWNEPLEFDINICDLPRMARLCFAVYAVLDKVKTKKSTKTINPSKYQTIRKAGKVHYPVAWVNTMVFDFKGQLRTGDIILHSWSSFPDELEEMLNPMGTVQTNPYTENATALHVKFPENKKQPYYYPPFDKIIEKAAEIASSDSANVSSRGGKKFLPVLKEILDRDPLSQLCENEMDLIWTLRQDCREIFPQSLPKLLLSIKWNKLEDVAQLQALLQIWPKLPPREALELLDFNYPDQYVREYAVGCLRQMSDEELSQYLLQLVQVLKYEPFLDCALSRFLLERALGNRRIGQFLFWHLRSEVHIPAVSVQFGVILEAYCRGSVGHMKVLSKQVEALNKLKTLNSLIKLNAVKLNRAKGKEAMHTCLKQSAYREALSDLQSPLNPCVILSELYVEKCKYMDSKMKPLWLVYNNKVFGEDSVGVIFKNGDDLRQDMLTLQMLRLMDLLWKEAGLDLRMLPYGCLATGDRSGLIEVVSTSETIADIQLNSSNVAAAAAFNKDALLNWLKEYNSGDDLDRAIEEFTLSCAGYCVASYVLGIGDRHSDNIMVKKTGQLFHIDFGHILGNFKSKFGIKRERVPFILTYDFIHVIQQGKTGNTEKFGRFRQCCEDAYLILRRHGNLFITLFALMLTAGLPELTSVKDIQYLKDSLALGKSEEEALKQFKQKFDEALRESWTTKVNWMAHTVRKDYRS
PI3-kinase p110-alpha/p85-alpha, sequence (P27986 whole entry): as the sequence (P27986 whole entry) above
PI3-kinase p110-alpha/p85-alpha, sequence (P42336 whole entry): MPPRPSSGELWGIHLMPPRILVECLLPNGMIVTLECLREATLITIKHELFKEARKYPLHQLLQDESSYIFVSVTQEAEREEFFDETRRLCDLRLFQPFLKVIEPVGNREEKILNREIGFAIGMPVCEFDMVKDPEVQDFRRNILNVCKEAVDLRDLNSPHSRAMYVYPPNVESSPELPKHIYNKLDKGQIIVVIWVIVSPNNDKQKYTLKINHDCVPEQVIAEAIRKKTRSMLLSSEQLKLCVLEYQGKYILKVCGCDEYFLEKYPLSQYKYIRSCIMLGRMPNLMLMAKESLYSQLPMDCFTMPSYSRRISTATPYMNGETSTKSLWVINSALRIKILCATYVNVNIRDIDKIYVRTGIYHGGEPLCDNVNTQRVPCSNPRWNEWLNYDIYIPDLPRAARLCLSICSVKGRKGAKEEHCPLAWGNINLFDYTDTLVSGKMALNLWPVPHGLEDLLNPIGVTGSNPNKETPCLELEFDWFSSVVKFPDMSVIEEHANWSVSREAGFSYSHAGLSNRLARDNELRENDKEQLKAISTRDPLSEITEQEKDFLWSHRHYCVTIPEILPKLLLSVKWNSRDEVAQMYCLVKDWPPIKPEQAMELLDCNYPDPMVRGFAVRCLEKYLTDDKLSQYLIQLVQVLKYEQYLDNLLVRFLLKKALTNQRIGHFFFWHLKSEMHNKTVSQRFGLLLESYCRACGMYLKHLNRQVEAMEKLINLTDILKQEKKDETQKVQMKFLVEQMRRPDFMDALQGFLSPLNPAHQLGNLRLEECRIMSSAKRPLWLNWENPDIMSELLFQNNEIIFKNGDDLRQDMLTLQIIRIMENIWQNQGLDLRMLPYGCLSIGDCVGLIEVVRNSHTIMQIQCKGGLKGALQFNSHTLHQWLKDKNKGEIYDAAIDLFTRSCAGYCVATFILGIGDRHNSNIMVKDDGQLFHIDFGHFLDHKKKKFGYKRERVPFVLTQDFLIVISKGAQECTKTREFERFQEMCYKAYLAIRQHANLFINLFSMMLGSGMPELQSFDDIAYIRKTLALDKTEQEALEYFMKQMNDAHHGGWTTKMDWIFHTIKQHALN

As usually defined, the inhibition is how much of the control response was suppressed. One may read the fraction remaining as what is left of the initial amount, in per cent. As for `O=c1c2cccn2nc([C@@H]2CCCN2c2ncnc3[nH]cnc23)n1-c1ccccc1`, the inhibition at 1 µM on PI3K p110 beta/p85 alpha [1] came out at 17.4%. Besides, the fraction remaining at 0.5 h, 1 µM in series [2] worked out at 44.3%.
As for `O=c1c2c(Cl)ccn2nc([C@@H]2CCCN2c2ncnc3[nH]cnc23)n1-c1ccccc1`, the figures for the fraction remaining at 0.5 h, 1 µM in series [2] and in series [3] were 38.8% and 72.6%, respectively.
Broadly, the IC50 is the concentration at which inhibition is half-maximal. Turning to `CC(=O)c1c[nH]c2ncnc(N3CCC[C@H]3c3nn4ccc(Cl)c4c(=O)n3-c3cccc(F)c3)c12`, the IC50 is 7 nM in series [4] and 3 nM in series [5]. In series [3], the fraction remaining at 0.5 h, 1 µM was 11.7%.
As for `Nc1ncc(C(=O)C(F)(F)F)c(N2CC[C@H]2c2nn3ccc(Cl)c3c(=O)n2-c2ccccc2)n1`, the IC50 on PI3K p110 beta/p85 alpha [6] was greater than 1000 nM.
Take `CC(=O)c1c[nH]c2ncnc(N3CCC[C@H]3c3nn4ccc(F)c4c(=O)n3-c3ccccc3)c12`: the IC50 amounted to 42 nM in series [4] and 5 nM in series [5]. In addition, the share remaining at 0.5 h, 1 µM in series [2] turned out to be 26.1%; in series [3] it was 25.1%.
For the compound `C#Cc1cnc(N)nc1N1CC[C@H]1c1nn2ccc(Cl)c2c(=O)n1-c1ccccc1`, the inhibition at 1 µM at PI3K p110 beta/p85 alpha [1] amounted to 22.7%.
Turning to `CC(=O)c1c[nH]c2ncnc(N3CCC[C@H]3c3nn4ccc(Cl)c4c(=O)n3-c3ccccc3)c12`, the fraction remaining at 0.5 h, 1 µM in series [2] worked out at 41.4%; in series [3] it was 17.9%.
As for `N#Cc1cnc(N)nc1N1CC[C@H]1c1nn2ccc(Cl)c2c(=O)n1-c1ccccc1`, the inhibition at 1 µM was less than 50% in series [7] and 37% on PI3K p110 beta/p85 alpha [1]. Besides, the IC50 in series [4] turned out to be 241 nM; in series [5], 16 nM. The amount remaining at 0.5 h, 1 µM in series [2] stood at 77.5%; in series [3] it was 71.2%.
Take `CC(=O)c1c[nH]c2ncnc(N3CC[C@H]3c3nn4ccc(Cl)c4c(=O)n3-c3ccccc3)c12`: the inhibition at 1 µM in series [7] was 8.4%; on PI3K p110 beta/p85 alpha [1], 45.9%. Moreover, the IC50 in series [4] came to 142 nM; in series [5], 21 nM. Besides, the share remaining at 0.5 h, 1 µM amounted to 77.2% in series [2] and 83% in series [3].
For the compound `N#Cc1cnc(N)nc1N1CCC[C@H]1c1nn2ccc(Cl)c2c(=O)n1-c1ccccc1`, the IC50 in series [4] was found to be 22 nM; in series [5], 3 nM. The share remaining at 0.5 h, 1 µM in series [2] stood at 23.5%.
As for `C[C@H](Nc1ncnc2nc[nH]c12)c1cc2cccc(Cl)c2c(=O)n1-c1ccccc1` [DUVELISIB], the IC50 in series [4] was found to be 25 nM; in series [8], 2 nM.

The values above are taken from ChEMBL document CHEMBL4350965 (J Med Chem, 2019).
